For orientation: logP means the decadic logarithm of the partition coefficient of the neutral form, usually between octanol and water. In the case of `Clc1cccc(-c2ccccc2)c1Cl`, the logP is 4.99.

The compound `Clc1ccc(Cl)c(-c2ccccc2Cl)c1` gave a logP of 5.34.

`Clc1ccc(-c2c(Cl)c(Cl)c(Cl)c(Cl)c2Cl)cc1Cl` gave a logP of 7.08.

Consider `Clc1ccc(-c2cccc(Cl)c2Cl)c(Cl)c1`, for which the logP was determined as 5.72.

Compound `Clc1ccc(-c2c(Cl)cc(Cl)c(Cl)c2Cl)cc1Cl` yielded a logP of 6.78.

Compound `Clc1cc(Cl)cc(-c2cc(Cl)cc(Cl)c2)c1` yielded a logP of 6.6.

In turn, `Clc1cc(-c2c(Cl)ccc(Cl)c2Cl)c(Cl)c(Cl)c1Cl` yielded a lipophilicity (logP) of 6.85.

As to `Clc1ccc(-c2ccc(Cl)cc2Cl)c(Cl)c1`, the logP turned out to be 5.94.

In turn, `Clc1ccc(-c2c(Cl)cccc2Cl)cc1Cl` gave a logP of 5.76.

Regarding `Clc1cc(Cl)c(-c2cccc(Cl)c2Cl)c(Cl)c1`, the logP was 6.04.

`Clc1cccc(-c2ccc(Cl)cc2Cl)c1` gave a logP of 5.54.

In turn, `Clc1ccc(-c2c(Cl)c(Cl)c(Cl)c(Cl)c2Cl)c(Cl)c1` registered a logP of 7.13.

`Clc1cc(Cl)c(-c2ccc(Cl)c(Cl)c2Cl)c(Cl)c1`: the lipophilicity (logP) worked out at 6.58.

`Clc1cccc(-c2cccc(Cl)c2)c1` registered a log partition coefficient (logP) of 5.27.

Compound `Clc1ccc(-c2c(Cl)c(Cl)cc(Cl)c2Cl)c(Cl)c1Cl` yielded a logP of 6.73.

`Clc1ccc(-c2ccc(Cl)cc2)cc1`: the logP was determined as 5.23.

Compound `Clc1ccc(Cl)c(-c2ccc(Cl)c(Cl)c2Cl)c1` returned a lipophilicity (logP) of 6.23.

In the case of `Clc1ccc(-c2cccc(Cl)c2)cc1`, the logP stood at 5.15.

Compound `Clc1ccc(-c2ccc(Cl)c(Cl)c2Cl)c(Cl)c1` yielded a lipophilicity (logP) of 6.18.

For the compound `Clc1cc(Cl)c(Cl)c(-c2c(Cl)c(Cl)c(Cl)c(Cl)c2Cl)c1Cl`, the logP turned out to be 7.77.

In turn, `Clc1cc(-c2c(Cl)c(Cl)cc(Cl)c2Cl)cc(Cl)c1Cl` had a logP of 7.21.

Consider `Clc1cc(-c2c(Cl)c(Cl)c(Cl)c(Cl)c2Cl)c(Cl)c(Cl)c1Cl`, for which the logP turned out to be 7.94.

`Clc1ccc(-c2c(Cl)cc(Cl)c(Cl)c2Cl)cc1` came in with a logP of 6.44.

Turning to `Clc1cccc(-c2c(Cl)cc(Cl)cc2Cl)c1`, the logP was determined as 6.03.

Regarding `Clc1cc(Cl)c(Cl)c(-c2c(Cl)c(Cl)c(Cl)c(Cl)c2Cl)c1`, the lipophilicity (logP) was 7.43.

Turning to `Clc1ccc(-c2c(Cl)cccc2Cl)c(Cl)c1`, the lipophilicity (logP) stood at 5.51.

`Clc1cc(-c2cc(Cl)c(Cl)c(Cl)c2Cl)c(Cl)c(Cl)c1Cl`: the logP came to 7.62.

Consider `Clc1ccc(-c2ccccc2)cc1`, for which the logP amounted to 4.63.

`Clc1cc(Cl)c(-c2c(Cl)c(Cl)cc(Cl)c2Cl)c(Cl)c1`: the logP was found to be 6.78.

In turn, `Clc1ccc(-c2ccccc2)c(Cl)c1Cl` returned a logP of 5.68.

Take `Clc1ccc(Cl)c(-c2c(Cl)cccc2Cl)c1`: the logP was found to be 5.55.

In turn, `Clc1ccc(-c2ccccc2Cl)c(Cl)c1` gave a logP of 5.39.

In turn, `Clc1ccc(-c2c(Cl)cccc2Cl)cc1` displayed a logP of 5.24.

Consider `Clc1ccccc1-c1ccc(Cl)c(Cl)c1Cl`, for which the logP came to 5.79.

With `Clc1ccc(-c2ccccc2Cl)cc1`, the logP was 5.09.

For `Clc1ccc(-c2c(Cl)c(Cl)cc(Cl)c2Cl)cc1`, the logP is 6.39.

For the compound `Clc1ccc(-c2c(Cl)cccc2Cl)c(Cl)c1Cl`, the logP amounted to 5.6.

Compound `Clc1cccc(-c2cc(Cl)ccc2Cl)c1` gave a log partition coefficient (logP) of 5.65.

`Clc1ccc(-c2ccccc2Cl)cc1Cl`: the logP was 5.71.

`Clc1cccc(-c2cc(Cl)c(Cl)cc2Cl)c1` returned a logP of 6.32.

On to `Clc1ccc(-c2cc(Cl)c(Cl)cc2Cl)c(Cl)c1`, for which the logP amounted to 6.41.

Compound `Clc1cccc(-c2c(Cl)cccc2Cl)c1Cl` showed a logP of 4.84.

Take `Clc1ccc(Cl)c(-c2c(Cl)c(Cl)cc(Cl)c2Cl)c1Cl`: the logP turned out to be 6.41.

The compound `Clc1ccc(Cl)c(-c2cc(Cl)cc(Cl)c2Cl)c1` came in with a log partition coefficient (logP) of 6.32.

In turn, `Clc1cc(Cl)c(-c2cc(Cl)c(Cl)c(Cl)c2Cl)c(Cl)c1` had a logP of 6.92.

The compound `Clc1cc(Cl)c(Cl)c(-c2cc(Cl)c(Cl)c(Cl)c2Cl)c1` had a logP of 7.21.

Compound `Clc1ccc(Cl)c(-c2cc(Cl)c(Cl)cc2Cl)c1` came in with a logP of 6.3.

`Clc1cc(Cl)c(-c2c(Cl)c(Cl)c(Cl)c(Cl)c2Cl)cc1Cl`: the logP is 7.49.

The compound `Clc1cccc(-c2cccc(Cl)c2Cl)c1Cl` registered a logP of 5.67.

`Clc1ccccc1-c1c(Cl)c(Cl)cc(Cl)c1Cl` had a logP of 6.06.

`Clc1ccc(-c2c(Cl)ccc(Cl)c2Cl)cc1` registered a log partition coefficient (logP) of 5.76.

In turn, `Clc1cc(Cl)c(-c2ccccc2Cl)cc1Cl` displayed a logP of 5.69.

As for `Clc1cc(Cl)cc(-c2c(Cl)c(Cl)c(Cl)c(Cl)c2Cl)c1`, the logP was found to be 7.21.

`Clc1ccc(Cl)c(-c2c(Cl)cc(Cl)c(Cl)c2Cl)c1` came in with a logP of 6.45.

`Clc1cc(Cl)c(-c2ccc(Cl)c(Cl)c2)c(Cl)c1` returned a logP of 6.4.

Regarding `Clc1ccc(-c2ccc(Cl)c(Cl)c2)c(Cl)c1`, the logP is 5.98.

Regarding `Clc1ccc(Cl)c(-c2c(Cl)c(Cl)c(Cl)c(Cl)c2Cl)c1Cl`, the logP worked out at 7.21.

In turn, `Clc1cc(Cl)cc(-c2c(Cl)ccc(Cl)c2Cl)c1` returned a logP of 6.45.

Regarding `Clc1ccc(-c2cc(Cl)ccc2Cl)c(Cl)c1`, the logP was found to be 5.87.

On to `Clc1ccc(Cl)c(-c2c(Cl)c(Cl)c(Cl)c(Cl)c2Cl)c1`, for which the logP turned out to be 6.99.

As for `Clc1cc(Cl)c(-c2c(Cl)cc(Cl)c(Cl)c2Cl)c(Cl)c1Cl`, the logP came out at 7.21.

In turn, `Clc1cc(-c2c(Cl)c(Cl)c(Cl)c(Cl)c2Cl)cc(Cl)c1Cl` returned a lipophilicity (logP) of 7.62.

Consider `Clc1cc(Cl)c(-c2ccccc2Cl)c(Cl)c1`, for which the logP was determined as 5.75.

With `Clc1ccc(-c2ccccc2)c(Cl)c1`, the logP came out at 5.16.

`Clc1ccc(-c2cc(Cl)cc(Cl)c2Cl)c(Cl)c1` displayed a logP of 6.32.

Compound `Clc1cc(-c2c(Cl)cc(Cl)c(Cl)c2Cl)cc(Cl)c1Cl` gave a logP of 7.21.

The compound `Clc1cc(Cl)c(-c2ccc(Cl)c(Cl)c2Cl)cc1Cl` gave a log partition coefficient (logP) of 6.72.

With `Clc1ccc(-c2cc(Cl)c(Cl)cc2Cl)cc1`, the logP is 6.1.

Regarding `Clc1cc(Cl)cc(-c2ccccc2)c1`, the logP amounted to 5.41.

In turn, `Clc1cc(Cl)c(Cl)c(-c2c(Cl)cc(Cl)c(Cl)c2Cl)c1` gave a logP of 6.92.

Take `Clc1cccc(Cl)c1-c1c(Cl)cccc1Cl`: the logP worked out at 5.24.

Regarding `Clc1cc(Cl)c(-c2c(Cl)c(Cl)c(Cl)c(Cl)c2Cl)c(Cl)c1`, the logP worked out at 7.48.

`Clc1cccc(-c2c(Cl)c(Cl)cc(Cl)c2Cl)c1` had a logP of 6.41.

The compound `Clc1cc(-c2c(Cl)ccc(Cl)c2Cl)cc(Cl)c1Cl` returned a log partition coefficient (logP) of 6.63.

In the case of `Clc1ccccc1-c1c(Cl)cccc1Cl`, the logP amounted to 5.04.

`Clc1ccc(Cl)c(-c2cc(Cl)c(Cl)c(Cl)c2Cl)c1` came in with a logP of 6.75.

For `Clc1ccc(-c2cc(Cl)cc(Cl)c2Cl)cc1`, the logP stood at 6.1.

`Clc1ccccc1-c1ccccc1`: the logP is 4.42.

In turn, `Clc1ccc(-c2c(Cl)cc(Cl)cc2Cl)c(Cl)c1` yielded a log partition coefficient (logP) of 6.23.

In the case of `Clc1cc(Cl)c(Cl)c(-c2c(Cl)c(Cl)cc(Cl)c2Cl)c1Cl`, the logP was determined as 7.16.

Compound `Clc1cc(Cl)cc(-c2ccccc2Cl)c1` yielded a log partition coefficient (logP) of 5.71.

Compound `Clc1cc(Cl)cc(-c2c(Cl)cc(Cl)cc2Cl)c1` registered a logP of 6.43.

Compound `Clc1cccc(-c2cc(Cl)cc(Cl)c2)c1` gave a logP of 5.81.

In turn, `Clc1ccc(-c2c(Cl)cc(Cl)c(Cl)c2Cl)c(Cl)c1Cl` had a logP of 6.99.

The compound `Clc1ccc(Cl)c(-c2ccccc2)c1Cl` displayed a log partition coefficient (logP) of 5.44.

`Clc1cccc(-c2cc(Cl)c(Cl)c(Cl)c2Cl)c1Cl` showed a logP of 6.76.

`Clc1cc(Cl)c(-c2cc(Cl)ccc2Cl)c(Cl)c1` showed a logP of 6.11.

The compound `Clc1ccccc1-c1cc(Cl)c(Cl)c(Cl)c1Cl` displayed a logP of 6.39.

The compound `Clc1cccc(-c2cc(Cl)c(Cl)c(Cl)c2Cl)c1` came in with a logP of 6.92.

The compound `Clc1ccc(-c2c(Cl)c(Cl)cc(Cl)c2Cl)cc1Cl` showed a log partition coefficient (logP) of 6.78.

Take `Clc1cc(-c2c(Cl)cc(Cl)c(Cl)c2Cl)c(Cl)c(Cl)c1Cl`: the logP amounted to 7.43.

`Clc1ccccc1-c1cc(Cl)c(Cl)c(Cl)c1` displayed a logP of 5.98.

The compound `Clc1ccc(-c2c(Cl)cc(Cl)cc2Cl)cc1` gave a logP of 6.03.

For the compound `Clc1cc(Cl)c(-c2c(Cl)c(Cl)cc(Cl)c2Cl)cc1Cl`, the logP came out at 6.92.

The compound `Clc1cc(Cl)c(-c2c(Cl)cc(Cl)c(Cl)c2Cl)cc1Cl` showed a logP of 7.05.

For the compound `Clc1ccc(Cl)c(-c2ccccc2)c1`, the logP stood at 5.1.

As for `Clc1cc(Cl)c(Cl)c(-c2c(Cl)c(Cl)cc(Cl)c2Cl)c1`, the log partition coefficient (logP) was determined as 6.85.

`Clc1ccc(-c2cccc(Cl)c2Cl)cc1Cl` came in with a logP of 5.85.

Regarding `Clc1cc(-c2c(Cl)c(Cl)cc(Cl)c2Cl)c(Cl)c(Cl)c1Cl`, the logP came to 7.35.

As for `Clc1ccc(-c2c(Cl)c(Cl)c(Cl)c(Cl)c2Cl)c(Cl)c1Cl`, the logP stood at 7.35.

In turn, `Clc1ccc(-c2ccc(Cl)c(Cl)c2)cc1` registered a logP of 5.78.

In turn, `Clc1ccccc1-c1c(Cl)ccc(Cl)c1Cl` gave a logP of 4.84.

Source of the values: the SangsterLogP compilation.
